Laboratory results: patent publication US11564911B2, “Small molecule dual-inhibitors of TRPV4 and TRPA1 for sanitizing and anesthetizing” (Duke University, priority 2016, dated 2023)

Experiments:
TRPV1 = molecular target: T1, TRPV1 (Mus musculus, UniProt Q704Y3); experiment: Ca++ imaging in N2a cells over-expressing TRPV1; assay type: cell-based; conditions: 5 μM, mouse isoform in N2a cells
T1 construct: expressed in transfected cells; host or cells: N2a cells, eGFP co-transfected
From the text: (§1) Mean±SEM is shown, ≥100 cells per condition. […] Plot generated from averaged peak ΔCa++ concentration of […] per data-point.

TRPV3 = molecular target: T2, TRPV3 (Mus musculus, UniProt Q8K424); experiment: Ca++ imaging in N2a cells over-expressing TRPV3; assay type: cell-based; conditions: 5 μM, mouse isoform in N2a cells
T2 construct: expressed in transfected cells; host or cells: N2a cells, eGFP co-transfected
From the text: as §1

human TRPV1 = molecular target: T3, human TRPV1 (Homo sapiens, UniProt Q8NER1); experiment: Ca2+ signal in N2a cells transfected with human TRPV1 (capsaicin); assay type: cell-based; conditions: 5 μM capsaicin stimulation
T3 construct: expressed in transfected cells; host or cells: N2a cells
Experimental: (§2) Compounds were tested for their effect on TRPV1, TRPV2, and TRPV3. Methods were similar to those described in Example 15. Briefly, N2a cells were transfected with human TRPV1, TRPV2, or TRPV3. eGFP-transfection was used as control. For specific stimulation of TRPV1, 5 μM capsaicin was used. For stimulation of TRPV2, hypotonicity (260 mosmol/L) was used, based on previous reports of TRPV2 being osmotically responsive. N2a cells were not responsive to hypotonicity, and neither were control-transfected cells. For TRPV3-expressing cells, camphor (20% of a commercially available stock solution) was used. […] Stimulation and control protocols were applied as for TRPA1-expressing N2a cells as detailed above in Example 15.

human TRPV2 = molecular target: T4, human TRPV2 (Homo sapiens, UniProt Q9Y5S1); experiment: Ca2+ signal in N2a cells transfected with human TRPV2 (hypotonicity); assay type: cell-based; conditions: hypotonicity 260 mosmol/L
T4 construct: expressed in transfected cells; host or cells: N2a cells
Experimental: as §2

human TRPV3 = molecular target: T5, human TRPV3 (Homo sapiens, UniProt Q8NET8); experiment: Ca2+ signal in N2a cells transfected with human TRPV3 (camphor); assay type: cell-based; conditions: camphor stimulation
T5 construct: expressed in transfected cells; host or cells: N2a cells
Experimental: as §2

[1] = tested on: WT mice, whisker-pad injection of 4% formalin; experiment: Formalin-evoked trigeminal irritant pain, systemic (i.p.) compound, WT mice; assay type: in vivo, mouse; conditions: 10 mg/kg i.p.
Experimental: FIGS. 31A-31D: 16-8 and 16-19 effectively attenuate formalin-evoked trigeminal irritant pain. (FIG. 31A) Time-course of nocifensive behavior in WT mice following whisker-pad injection of 4% formalin. The mice were pre-injected (i.p., 10 mg/kg; 15 min before formalin) with GSK205, 16-8 or 16-19. Note effective reduction of nocifensive behavior in the late “neural” phase by compounds 16-8, 16-19, not by GSK205. (FIG. 31B) Cumulative response binned into 3 phases: acute phase (0-5 min), interphase (5-15 min), and late “neural” phase (15-45 min). […] (FIG. 31C) As in (FIG. 31A), but also including Trpv4^−/− mice. Compounds were applied i.p. 15 min before formalin challenge, at 10 mg/kg except established TRPA1 blocker, A967079 (25 mg/kg). […]
Compounds were tested for their effect in reducing pain using an in vivo pain model in mice. […] After injection, mice were immediately placed back into the chamber and the rubbing behavior was recorded by a private consumer-type video-camera for a 45 min observation period. The recording time was divided into 9 blocks of 5 min, and a nociceptive score was determined per block by measuring the time that the animals spent rubbing the injected area predominantly with the ipsilateral fore-paw and rarely with hind-paw. […]

[2] = tested on: Trpv4−/− mice, whisker-pad injection of formalin; experiment: Formalin-evoked trigeminal irritant pain, systemic (i.p.) compound, Trpv4−/− mice; assay type: in vivo, mouse; conditions: 10 mg/kg i.p.; for late-phase pain behavior: vs vehicle / vs A967079 25 mg/kg
Experimental: FIGS. 31A-31D: 16-8 and 16-19 effectively attenuate formalin-evoked trigeminal irritant pain. (FIG. 31A) Time-course of nocifensive behavior in WT mice following whisker-pad injection of 4% formalin. The mice were pre-injected (i.p., 10 mg/kg; 15 min before formalin) with GSK205, 16-8 or 16-19. Note effective reduction of nocifensive behavior in the late “neural” phase by compounds 16-8, 16-19, not by GSK205. (FIG. 31B) Cumulative response binned into 3 phases: acute phase (0-5 min), interphase (5-15 min), and late “neural” phase (15-45 min). […] (FIG. 31C) As in (FIG. 31A), but also including Trpv4^−/− mice. Compounds were applied i.p. 15 min before formalin challenge, at 10 mg/kg except established TRPA1 blocker, A967079 (25 mg/kg). Previously-established attenuated nocifensive behavior in early and late phase in Trpv4^−/− mice was recapped, which was reduced further by TRPA1 blocker, A967079. (FIG. 31D) As in (FIG. 31B), plus inclusion of Trpv4^−/− mice. Robust effects of TRPA1-blocker, A967079, were mimicked equi-potently by 16-8 and 16-19 for early phase, and by 16-8 for late phase, partially by 16-19 for late phase. (FIG. 31A, FIG. 31C) show averaged behavioral metrics per time-point, bars in (FIG. 31B, FIG. 31D) represent mean±SEM; for (D) *p<0.05; #P<0.005, one-way ANOVA; for all panels n=5-8 mice/group.
Compounds were tested for their effect in reducing pain using an in vivo pain model in mice. For mouse formalin-evoked irritant behavior measurements, mice were well-fed, well-rested, and tested at the same time of day, at the same time-point of their circadian rhythm. They were allowed to acclimate to a plexiglas chamber for at least 30 min before testing, and received 10 μL subcutaneous injection of 4% of formalin (diluted from an aqueous solution of commercial 37% formaldehyde with normal saline (NS)) through a 30-gauge needle into the right whiskerpad, as further detailed in Luccarini et al. (J. Pain, 2006, 7, 908-914). Normal saline was used as control injection. After injection, mice were immediately placed back into the chamber and the rubbing behavior was recorded by a private consumer-type video-camera for a 45 min observation period. The recording time was divided into 9 blocks of 5 min, and a nociceptive score was determined per block by measuring the time that the animals spent rubbing the injected area predominantly with the ipsilateral fore-paw and rarely with hind-paw. This rubbing behavior with fore-paw is evoked by pain, which is distinct from itch behavior. Behavioral analysis was conducted by observers blinded to treatment.
We observed significant residual irritant-pain behavior in all phases of the formalin model in Trpv4^−/− mice, consistent with our previous report^13 (FIG. 31C,D). […] A reference TRPA1-inhibitory compound, A967079, was used at 25 mg/kg body weight as a positive control to inhibit TRPA1, based on a previous report^38. Reduction of pain behavior in Trpv4^−/− mice was striking, more than 50% in the late neural phase. […] We conclude that compound 16-8 also functions as a potent TRPA1-inhibitor in an in-vivo irritant pain model specifically designed to assess the contribution of TRPA1 to trigeminal irritant pain, and at least as potent as an established reference TRPA1-antagonistic compound.

T4 sequence (Q9Y5S1 whole entry): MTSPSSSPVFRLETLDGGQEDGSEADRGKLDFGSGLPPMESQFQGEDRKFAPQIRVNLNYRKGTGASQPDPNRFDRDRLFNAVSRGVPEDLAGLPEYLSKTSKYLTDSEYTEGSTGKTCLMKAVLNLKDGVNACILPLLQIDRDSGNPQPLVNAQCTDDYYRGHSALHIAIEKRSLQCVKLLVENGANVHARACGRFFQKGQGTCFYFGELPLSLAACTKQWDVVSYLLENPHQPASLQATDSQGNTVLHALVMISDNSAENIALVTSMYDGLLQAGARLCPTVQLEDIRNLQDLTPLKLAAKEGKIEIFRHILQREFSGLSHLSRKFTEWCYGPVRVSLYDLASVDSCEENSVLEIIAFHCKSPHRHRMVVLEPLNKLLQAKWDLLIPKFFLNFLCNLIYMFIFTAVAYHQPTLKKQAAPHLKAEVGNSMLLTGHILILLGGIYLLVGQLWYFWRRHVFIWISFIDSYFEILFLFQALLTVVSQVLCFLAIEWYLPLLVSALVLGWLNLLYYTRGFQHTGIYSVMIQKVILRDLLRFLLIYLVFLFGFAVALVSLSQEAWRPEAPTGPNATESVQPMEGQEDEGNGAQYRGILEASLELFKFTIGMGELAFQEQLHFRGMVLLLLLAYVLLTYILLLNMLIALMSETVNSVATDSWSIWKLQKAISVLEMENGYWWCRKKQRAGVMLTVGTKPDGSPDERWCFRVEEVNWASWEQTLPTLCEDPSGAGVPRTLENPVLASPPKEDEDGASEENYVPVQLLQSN
T3 sequence (Q8NER1 whole entry): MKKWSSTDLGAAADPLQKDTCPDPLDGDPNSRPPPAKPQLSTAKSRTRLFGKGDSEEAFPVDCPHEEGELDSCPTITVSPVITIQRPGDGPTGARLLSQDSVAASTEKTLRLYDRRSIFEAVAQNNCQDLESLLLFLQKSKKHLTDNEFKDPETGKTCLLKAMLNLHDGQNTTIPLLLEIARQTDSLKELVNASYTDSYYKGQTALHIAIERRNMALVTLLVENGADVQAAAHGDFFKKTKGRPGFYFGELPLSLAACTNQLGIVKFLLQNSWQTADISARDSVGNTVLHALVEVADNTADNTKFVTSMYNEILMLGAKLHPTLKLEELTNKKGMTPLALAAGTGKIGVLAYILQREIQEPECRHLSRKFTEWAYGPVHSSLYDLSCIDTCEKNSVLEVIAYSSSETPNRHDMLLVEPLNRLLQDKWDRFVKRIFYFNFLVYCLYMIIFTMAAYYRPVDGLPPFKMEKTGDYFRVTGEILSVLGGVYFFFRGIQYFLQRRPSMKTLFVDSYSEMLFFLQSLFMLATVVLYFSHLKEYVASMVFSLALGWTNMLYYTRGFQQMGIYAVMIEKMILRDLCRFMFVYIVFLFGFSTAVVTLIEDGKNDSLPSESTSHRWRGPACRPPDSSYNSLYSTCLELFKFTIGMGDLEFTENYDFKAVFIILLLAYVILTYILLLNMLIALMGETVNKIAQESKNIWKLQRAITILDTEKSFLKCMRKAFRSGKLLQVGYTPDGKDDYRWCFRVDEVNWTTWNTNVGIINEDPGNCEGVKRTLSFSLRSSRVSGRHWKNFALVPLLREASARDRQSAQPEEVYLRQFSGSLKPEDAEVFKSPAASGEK
T2 sequence (Q8K424 whole entry, canonical isoform): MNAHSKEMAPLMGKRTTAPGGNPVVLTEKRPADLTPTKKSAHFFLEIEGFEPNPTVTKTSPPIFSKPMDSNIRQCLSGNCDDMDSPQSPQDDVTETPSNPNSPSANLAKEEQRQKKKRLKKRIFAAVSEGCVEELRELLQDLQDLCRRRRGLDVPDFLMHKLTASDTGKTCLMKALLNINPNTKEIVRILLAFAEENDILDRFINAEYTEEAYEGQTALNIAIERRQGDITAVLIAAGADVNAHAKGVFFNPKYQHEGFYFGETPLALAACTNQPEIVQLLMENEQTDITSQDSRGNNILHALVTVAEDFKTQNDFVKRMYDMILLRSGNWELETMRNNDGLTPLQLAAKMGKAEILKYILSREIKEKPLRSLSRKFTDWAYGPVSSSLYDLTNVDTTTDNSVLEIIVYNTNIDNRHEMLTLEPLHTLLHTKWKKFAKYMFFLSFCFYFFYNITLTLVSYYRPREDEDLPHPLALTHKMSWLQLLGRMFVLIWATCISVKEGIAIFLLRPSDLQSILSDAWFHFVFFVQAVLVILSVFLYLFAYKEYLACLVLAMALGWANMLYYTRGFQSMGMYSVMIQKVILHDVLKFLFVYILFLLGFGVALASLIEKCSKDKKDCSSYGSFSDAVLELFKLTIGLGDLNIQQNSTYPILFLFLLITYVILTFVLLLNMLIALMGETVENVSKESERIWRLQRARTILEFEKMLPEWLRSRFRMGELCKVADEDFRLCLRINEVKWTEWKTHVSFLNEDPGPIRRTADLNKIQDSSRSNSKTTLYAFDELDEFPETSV
T1 sequence (Q704Y3 whole entry, canonical isoform): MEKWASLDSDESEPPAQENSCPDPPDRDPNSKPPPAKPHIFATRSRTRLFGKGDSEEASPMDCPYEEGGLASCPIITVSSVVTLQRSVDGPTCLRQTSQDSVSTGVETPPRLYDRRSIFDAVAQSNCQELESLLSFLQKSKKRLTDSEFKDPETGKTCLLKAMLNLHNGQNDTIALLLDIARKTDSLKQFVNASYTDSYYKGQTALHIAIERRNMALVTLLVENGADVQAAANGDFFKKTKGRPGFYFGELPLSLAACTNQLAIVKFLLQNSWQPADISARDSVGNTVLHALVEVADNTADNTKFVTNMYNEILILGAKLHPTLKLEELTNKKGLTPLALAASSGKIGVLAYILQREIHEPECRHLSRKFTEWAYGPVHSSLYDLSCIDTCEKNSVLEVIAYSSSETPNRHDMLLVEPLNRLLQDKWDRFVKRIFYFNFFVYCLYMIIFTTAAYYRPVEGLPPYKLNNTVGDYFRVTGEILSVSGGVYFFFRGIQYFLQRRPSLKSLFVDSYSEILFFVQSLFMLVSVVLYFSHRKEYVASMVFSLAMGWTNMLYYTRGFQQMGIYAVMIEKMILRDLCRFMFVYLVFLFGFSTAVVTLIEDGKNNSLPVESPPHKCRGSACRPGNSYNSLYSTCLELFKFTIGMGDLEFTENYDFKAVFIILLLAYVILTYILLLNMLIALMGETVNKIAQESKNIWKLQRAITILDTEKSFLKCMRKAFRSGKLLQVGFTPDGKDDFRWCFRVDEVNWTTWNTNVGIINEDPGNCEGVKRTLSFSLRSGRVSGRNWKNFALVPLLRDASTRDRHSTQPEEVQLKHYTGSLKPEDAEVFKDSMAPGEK
T5 sequence (Q8NET8 whole entry): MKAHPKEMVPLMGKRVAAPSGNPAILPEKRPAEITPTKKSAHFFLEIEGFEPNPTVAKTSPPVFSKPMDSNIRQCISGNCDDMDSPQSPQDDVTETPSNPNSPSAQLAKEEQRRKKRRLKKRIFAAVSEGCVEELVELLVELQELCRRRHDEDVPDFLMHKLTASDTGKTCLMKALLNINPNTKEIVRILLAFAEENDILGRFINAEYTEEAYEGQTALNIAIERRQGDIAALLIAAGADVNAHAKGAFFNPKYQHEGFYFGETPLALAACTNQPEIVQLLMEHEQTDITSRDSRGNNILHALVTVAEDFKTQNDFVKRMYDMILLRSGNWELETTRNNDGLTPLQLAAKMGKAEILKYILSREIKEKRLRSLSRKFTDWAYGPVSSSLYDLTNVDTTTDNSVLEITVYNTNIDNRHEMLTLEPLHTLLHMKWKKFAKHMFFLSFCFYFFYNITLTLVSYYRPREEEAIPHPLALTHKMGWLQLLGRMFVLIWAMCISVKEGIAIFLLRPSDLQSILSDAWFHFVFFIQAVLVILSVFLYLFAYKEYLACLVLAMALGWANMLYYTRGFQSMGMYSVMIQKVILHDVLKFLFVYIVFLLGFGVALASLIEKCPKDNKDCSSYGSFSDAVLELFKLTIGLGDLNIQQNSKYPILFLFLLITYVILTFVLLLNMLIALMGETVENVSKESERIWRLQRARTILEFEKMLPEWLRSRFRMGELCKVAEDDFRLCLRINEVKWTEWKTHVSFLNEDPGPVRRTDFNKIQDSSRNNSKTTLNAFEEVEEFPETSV

Row | Compound | inhibition of TRPV1 (TRPV1) | inhibition of TRPV3 (TRPV3) | effect on Ca2+ transience, TRPV1 (human TRPV1) | effect on Ca2+ transience, TRPV2 (human TRPV2) | effect on Ca2+ transience, TRPV3 (human TRPV3) | formalin-evoked pain behavior in the delayed (late, neural) phase [1] | immediate-phase pain behavior [2] | late-phase pain behavior [2]
1 | CN(CCc1ccc(Nc2nc(-c3ccccc3)cs2)cc1)Cc1ccccc1 [Compound 16-8] | did not inhibit | did not inhibit | not affected | not affected | not affected | significant attenuation | virtually eliminated | strikingly reduced
2 | CCN(CCc1ccc(Nc2nc(-c3ccccc3)cs2)cc1)Cc1ccccc1 [Compound 16-19] | did not inhibit | did not inhibit | not affected | not affected | not affected | robust effect | virtually eliminated | significantly reduced
